Measurements: ChEMBL document CHEMBL3885861, “Open TG-GATES”

Species: Rattus norvegicus
Assay: Open TG-GATES - Regimen: Daily Repeat
Format: toxicity, organism-based, Sprague-Dawley
Set-up: regimen Daily Repeat, gender Male, age 6 weeks
Details: in vivo, po, 10 mg/kg, route gavage, dose level Low; for APTT / Bas / Eos / Fbg / Hb / Ht / Lym / MCH / MCHC / MCV / Mono / Neu / PT / Plat / RBC / Ret / WBC: tissue Blood
[1] = 72 h, tissue Kidney, time 3 day
[2] = 72 h, tissue Plasma, time 3 day

## CC1=C(/C=C/C(C)=C/C=C/C(C)=C/CO)C(C)(C)CCC1 [RETINOL]
72 h, time 3 day
  TERMINAL_BW: 230.9 g
  APTT: 22.3 s
  Bas: 0%
  Eos: 0.8%
  Fbg: 311.2 mg/dL
  Hb: 13.4 g/dL
  Ht: 38.9%
  Lym: 80.8%
  MCH: 21 pg
  MCHC: 34.4%
  MCV: 61.2 fL
  Mono: 2.6%
  Neu: 15.4%
  PT: 16.8 s
  Plat: 123.7 x10_4/uL
  RBC: 636 x10_4/ul
  Ret: 6.2%
  WBC: 97.2 x10_2/uL
[1]
  KIDNEY_L: 1 g
  KIDNEY_R: 1 g
  KIDNEY_TOTAL: 2 g
72 h, tissue Liver, time 3 day
  LIVER: 10.7 g
[2]
  A/G: 1.3
  ALP: 2143.6 IU/L
  ALT: 51.6 IU/L
  AST: 82 IU/L
  BUN: 17 mg/dL
  CRE: 0.1 mg/dL
  Ca: 11 mg/dL
  Cl: 107.8 meq/L
  DBIL: 0 mg/dL
  GLC: 191.4 mg/dL
  IP: 6.5 mg/dL
  K: 4.3 meq/L
  LDH: 262.6 IU/L
  Na: 142.2 meq/L
  PL: 153.6 mg/dL
  RALB: 3.2 g/dL
  TBIL: 0.016 mg/dL
  TC: 78.2 mg/dL
  TG: 112.6 mg/dL
  TP: 5.6 g/dL
  gamma-GTP: 1 IU/L
[…], time 7 day
  TERMINAL_BW: 257.9 g
  APTT: 23.3 s
  Bas: 0%
  Eos: 0.8%
  Fbg: 298.4 mg/dL
  Hb: 13.6 g/dL
  Ht: 39.2%
  Lym: 79.4%
  MCH: 21.2 pg
  MCHC: 34.8%
  MCV: 60.9 fL
  Mono: 2.4%
  Neu: 16.8%
  PT: 15.9 s
  Plat: 111.8 x10_4/uL
  RBC: 644 x10_4/ul
  Ret: 5.1%
  WBC: 94.2 x10_2/uL
[…], time 14 day
  TERMINAL_BW: 293.8 g
  APTT: 23.8 s
  Bas: 0%
  Eos: 0.8%
  Fbg: 295.4 mg/dL
  Hb: 14.4 g/dL
  Ht: 40.6%
  Lym: 83.6%
  MCH: 20.6 pg
  MCHC: 35.4%
  MCV: 58.2 fL
  Mono: 1.8%
  Neu: 13.2%
  PT: 16.2 s
  Plat: 107.1 x10_4/uL
  RBC: 698 x10_4/ul
  Ret: 3.9%
  WBC: 114.6 x10_2/uL
[…], time 28 day
  TERMINAL_BW: 358.5 g
  APTT: 26.8 s
  Bas: 0%
  Eos: 1%
  Fbg: 330 mg/dL
  Hb: 14.9 g/dL
  Ht: 41.2%
